Data set [1] deals with Plasmodium falciparum. Description: Antiplasmodial activity against chloroquine-resistant Plasmodium falciparum Dd2 by SYBR green assay. It counts as functional, organism-based.
Data set [2] deals with Plasmodium falciparum. Description: Antiplasmodial activity against chloroquine-resistant Plasmodium falciparum FCM29 by SYBR green assay. It counts as functional, organism-based.
Data set [3] is described as follows: Selectivity index, ratio of IC50 for human A2780 cells to IC50 for Plasmodium falciparum Dd2. Format: toxicity, cell-based. The note with it: A2780 cells versus Plasmodium falciparum Dd2, read-out: Ratio IC50.
The subject of data set [4] is A2780. Kind of data set: Cytotoxicity against human A2780 cells. Format: cell-based.
Data set [5] can be described thus: Selectivity index, ratio of IC50 for human A2780 cells to IC50 for Plasmodium falciparum FCM29. The note with it: A2780 cells versus Plasmodium falciparum FCM29, read-out: Ratio IC50. It counts as toxicity, cell-based.

Data on seven molecules can be found in ChEMBL document CHEMBL1153961, “Antiproliferative and antimalarial anthraquinones of Scutia myrtina from the Madagascar forest” (Bioorg Med Chem, 2009).

Molecules are shown by their SMILES. Where only a bound is given, the exact number is not on record here.

Usually IC50 stands for the midpoint of a concentration-inhibition curve. Lower therefore signals greater potency in that assay. As for `COC(=O)c1c(O)cc2c(c1C)C(=O)c1c(O)cccc1C2=O` [ALOESAPONARIN I], the results for the IC50 in data set [1], in data set [2] and in data set [4] were 5.58 µM, 77.6 µM and more than 32 µM, respectively. The selectivity ratio in data set [3] is more than 5.7.
Regarding `COC(=O)c1c(O)cc2c(c1C)C(=O)c1c(ccc(C3(O)c4cccc(O)c4C(=O)c4c3cc(O)c(C(=O)OC)c4C)c1O)C2=O` (stereo unspecified) [SCUTIANTHRAQUINONE C], the IC50 in data set [1] is 3.14 µM; in data set [2], 15.4 µM; in data set [4] it was more than 16 µM. The selectivity ratio in data set [3] is more than 5; in data set [5] it was more than 1.
For `CCC(C)C(=O)OC1(c2ccc3c(c2O)C(=O)c2c(cc(O)c(C(=O)OC)c2C)C3(OC(=O)C(C)CC)c2ccc3c(c2O)C(=O)c2c(cc(O)c(C(=O)OC)c2C)C3=O)c2cccc(O)c2C(=O)c2c1cc(O)c(C(=O)OC)c2C` (stereo unspecified) [SCUTIANTHRAQUINONE D], the IC50 in data set [1] stood at 3.68 µM; in data set [2], 5.6 µM; in data set [4], 4.3 µM. In addition, the selectivity ratio came out at 1.2 in data set [3] and 0.8 in data set [5].
For `C=C[C@H]1CN2CC[C@H]1C[C@H]2[C@H](O)c1ccnc2ccc(OC)cc12` [QUININE], 0.22 µM corresponded to half-maximal inhibition in data set [2] (IC50).
As to `CCC(C)C(=O)OC1(c2ccc3c(c2O)C(=O)c2c(cc(O)c(C(=O)OC)c2C)C3=O)c2cccc(O)c2C(=O)c2c1cc(O)c(C(=O)OC)c2C` (stereo unspecified) [SCUTIANTHRAQUINONE A], the values for the half-maximal inhibitory concentration (IC50) in data set [1], in data set [2] and in data set [4] were 1.23 µM, 1.2 µM and 7.6 µM, respectively. The results for the selectivity ratio in data set [3] and in data set [5] were 6.1 and 6.3, respectively.
As for `CC(=O)O[C@H]1C(=O)[C@@]2(C)[C@H]([C@H](OC(=O)c3ccccc3)[C@]3(O)C[C@H](OC(=O)[C@H](O)[C@@H](NC(=O)c4ccccc4)c4ccccc4)C(C)=C1C3(C)C)[C@]1(OC(C)=O)CO[C@@H]1C[C@@H]2O` [PACLITAXEL], half-maximal inhibition in data set [4] (IC50) was put at 0.014 µM.
As for `COC(=O)c1c(O)cc2c(c1C)C(=O)c1c(ccc(C3(OC(=O)C(C)C)c4cccc(O)c4C(=O)c4c3cc(O)c(C(=O)OC)c4C)c1O)C2=O` (stereo unspecified) [SCUTIANTHRAQUINONE B], the IC50 in data set [1] was found to be 1.14 µM; in data set [2], 5.4 µM; in data set [4], 5.8 µM. In addition, the selectivity ratio in data set [3] was found to be 5.1; in data set [5] it was 1.1.
